Measured values as given in US10370343B2, “[6,6] Fused bicyclic HDAC8 inhibitors” (FORMA Therapeutics, Inc., priority 2015, dated 2019).
Structures can show the parent of a compound that is named as a salt.

biological target: T1, Recombinant N-terminal GST tag full-length human HDAC8 (Homo sapiens, UniProt Q9BY41); test: HDAC8 probe binding assay, time resolved fluorescence (TRF) format; conditions: compounds grouped by IC50 range (Table 2)
T1 construct: Recombinant N-terminal GST tag full-length human HDAC8; purchased SignalChem H90-30G-1000; host or cells: baculovirus in Sf9 insect cells
T1 sequence (Q9BY41 1-377): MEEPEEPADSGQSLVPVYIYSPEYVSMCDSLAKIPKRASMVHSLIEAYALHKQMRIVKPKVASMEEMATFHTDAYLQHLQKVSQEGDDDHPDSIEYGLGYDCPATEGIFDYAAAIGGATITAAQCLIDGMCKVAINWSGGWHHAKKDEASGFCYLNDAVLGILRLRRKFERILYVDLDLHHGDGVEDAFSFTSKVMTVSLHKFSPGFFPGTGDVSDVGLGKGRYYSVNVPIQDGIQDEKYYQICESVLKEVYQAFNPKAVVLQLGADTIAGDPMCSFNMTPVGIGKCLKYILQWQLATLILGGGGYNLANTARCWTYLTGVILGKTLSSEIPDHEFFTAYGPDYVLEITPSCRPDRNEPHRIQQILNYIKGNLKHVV
Method in brief: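 IC50 values come from four-parameter logistic fits of percent inhibition, scaled between DMSO (high) and no-enzyme (low) controls. Time-resolved fluorescence (ex 340, em 485/535 nm) was read after 16 h at room temperature. Enzyme was Sf9-expressed full-length human HDAC8 with an N-terminal GST tag, in a probe-binding format.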

SMILES	IC50 [nM]
COc1ccc(Cl)c(CN2C(=O)COc3ccc(C(=O)NO)cc32)c1 [Compound I-347, 4-(2-chloro-5-methoxybenzyl)-N-hydroxy-3-oxo-3,4-dihydro-2H-benzo[b][1,4]oxazine-6-carboxamide]	≤ 25
O=C(NO)c1ccc2c(c1)N(Cc1cc(Cl)ccc1F)C(=O)CO2 [Compound I-348, 4-(5-chloro-2-fluorobenzyl)-N-hydroxy-3-oxo-3,4-dihydro-2H-benzo[b][1,4]oxazine-6-carboxamide]	≤ 25
O=C(NO)c1ccc2c(c1)N(Cc1cc(Cl)cc(C(F)(F)F)c1)C(=O)CO2 [Compound I-349, 4-(3-chloro-5-(trifluoromethyl)benzyl)-N-hydroxy-3-oxo-3,4-dihydro-2H-benzo[b][1,4]oxazine-6-carboxamide]	25 to 100
COc1cc(CN2C(=O)COc3ccc(C(=O)NO)cc32)ccc1Cl [Compound I-350, 4-(4-chloro-3-methoxybenzyl)-N-hydroxy-3-oxo-3,4-dihydro-2H-benzo[b][1,4]oxazine-6-carboxamide]	≤ 25
O=C(NO)c1ccc2c(c1)N(Cc1ccc(F)c(Cl)c1)C(=O)CO2 [Compound I-351, 4-(3-chloro-4-fluorobenzyl)-N-hydroxy-3-oxo-3,4-dihydro-2H-benzo[b][1,4]oxazine-6-carboxamide]	≤ 25
O=C(NO)c1ccc2c(c1)N(Cc1cc(F)ccc1Cl)C(=O)CO2 [Compound I-352, 4-(2-chloro-5-fluorobenzyl)-N-hydroxy-3-oxo-3,4-dihydro-2H-benzo[b][1,4]oxazine-6-carboxamide]	≤ 25
COc1cc(CN2C(=O)COc3ccc(C(=O)NO)cc32)ccc1F [Compound I-353, 4-(4-fluoro-3-methoxybenzyl)-N-hydroxy-3-oxo-3,4-dihydro-2H-benzo[b][1,4]oxazine-6-carboxamide]	25 to 100
O=C(NO)c1ccc2c(c1)N(Cc1cccc(C(F)(F)F)c1Cl)C(=O)CO2 [Compound I-354, 4-(2-chloro-3-(trifluoromethyl)benzyl)-N-hydroxy-3-oxo-3,4-dihydro-2H-benzo[b][1,4]oxazine-6-carboxamide]	25 to 100
O=C(NO)c1ccc2c(c1)N(Cc1cc(Cl)cc(Cl)c1)C(=O)CO2 [Compound I-355, 4-(3,5-dichlorobenzyl)-N-hydroxy-3-oxo-3,4-dihydro-2H-benzo[b][1,4]oxazine-6-carboxamide]	≤ 25
O=C(NO)c1ccc2c(c1)N(Cc1ccc(C(F)(F)F)cc1Cl)C(=O)CO2 [Compound I-356, 4-(2-chloro-4-(trifluoromethyl)benzyl)-N-hydroxy-3-oxo-3,4-dihydro-2H-benzo[b][1,4]oxazine-6-carboxamide]	≤ 25
O=C(NO)c1ccc2c(c1)N(Cc1nc3cccnc3s1)C(=O)CO2 [Compound I-359, N-hydroxy-3-oxo-4-(thiazolo[5,4-b]pyridin-2-ylmethyl)-3,4-dihydro-2H-benzo[b][1,4]oxazine-6-carboxamide]	≤ 25
CN(C)C(=O)c1ccc(CN2C(=O)COc3ccc(C(=O)NO)cc32)cc1 [Compound I-360, 4-(4-(dimethylcarbamoyl)benzyl)-N-hydroxy-3-oxo-3,4-dihydro-2H-benzo[b][1,4]oxazine-6-carboxamide]	25 to 100
CN(C)c1ccc(CN2C(=O)COc3ccc(C(=O)NO)cc32)cc1 [Compound I-361, 4-(4-(dimethylamino)benzyl)-N-hydroxy-3-oxo-3,4-dihydro-2H-benzo[b][1,4]oxazine-6-carboxamide]	≤ 25
NC(=O)c1ccc(CN2C(=O)COc3ccc(C(=O)NO)cc32)cc1 [Compound I-362, 4-(4-carbamoylbenzyl)-N-hydroxy-3-oxo-3,4-dihydro-2H-benzo[b][1,4]oxazine-6-carboxamide]	≤ 25
O=C(NO)c1ccc2c(c1)N(Cc1cn3ccsc3n1)C(=O)CO2 [Compound I-363, N-hydroxy-4-(imidazo[2,1-b]thiazol-6-ylmethyl)-3-oxo-3,4-dihydro-2H-benzo[b][1,4]oxazine-6-carboxamide]	25 to 100
Cc1ccn2cc(CN3C(=O)COc4ccc(C(=O)NO)cc43)nc2c1 [Compound I-364, N-hydroxy-4-((7-methylimidazo[1,2-a]pyridin-2-yl)methyl)-3-oxo-3,4-dihydro-2H-benzo[b][1,4]oxazine-6-carboxamide]	25 to 100
Cc1ccc2nc(CN3C(=O)COc4ccc(C(=O)NO)cc43)cn2c1 [Compound I-365, N-hydroxy-4-((6-methylimidazo[1,2-a]pyridin-2-yl)methyl)-3-oxo-3,4-dihydro-2H-benzo[b][1,4]oxazine-6-carboxamide]	25 to 100
O=C(NO)c1ccc2c(c1)N(Cc1cn3cc(F)ccc3n1)C(=O)CO2 [Compound I-368, 4-((6-fluoroimidazo[1,2-a]pyridin-2-yl)methyl)-N-hydroxy-3-oxo-3,4-dihydro-2H-benzo[b][1,4]oxazine-6-carboxamide]	25 to 100
CC(C)NC(=O)c1ccc(CN2C(=O)COc3ccc(C(=O)NO)cc32)cc1 [Compound I-369, N-hydroxy-4-(4-(isopropylcarbamoyl)benzyl)-3-oxo-3,4-dihydro-2H-benzo[b][1,4]oxazine-6-carboxamide]	25 to 100
COc1ccc(F)c(CN2C(=O)COc3ccc(C(=O)NO)cc32)c1 [Compound I-371, 4-(2-fluoro-5-methoxybenzyl)-N-hydroxy-3-oxo-3,4-dihydro-2H-benzo[b][1,4]oxazine-6-carboxamide]	≤ 25
N#Cc1ccc(CN2C(=O)COc3ccc(C(=O)NO)cc32)c(Cl)c1 [Compound I-372, 4-(2-chloro-4-cyanobenzyl)-N-hydroxy-3-oxo-3,4-dihydro-2H-benzo[b][1,4]oxazine-6-carboxamide]	≤ 25
N#Cc1ccc(Cl)c(CN2C(=O)COc3ccc(C(=O)NO)cc32)c1 [Compound I-373, 4-(2-chloro-5-cyanobenzyl)-N-hydroxy-3-oxo-3,4-dihydro-2H-benzo[b][1,4]oxazine-6-carboxamide]	≤ 25

biological target: T2, Full length human recombinant HDAC8 protein (Homo sapiens, UniProt Q9BY41); test: In vitro histone deacetylase assay: enzymatic HDAC8 electrophoretic mobility shift assay; format: biochemical; conditions: electrophoretic mobility shift assay; enzyme 1 nM; 2 μM fluorescently labeled peptide substrate RHKK(Ac)-NH2; 25° C.; 12 concentrations; read-out: HDAC8 IC50
T2 construct: Full length human recombinant HDAC8 protein was expressed in baculoviral system; made in house
T2 sequence (Q9BY41 1-377): T1 sequence (Q9BY41 1-377)
Protocol: The enzymatic HDAC8 assay was performed using electrophoretic mobility shift assay. Full length human recombinant HDAC8 protein was expressed in baculoviral system and purified by affinity chromatography. The enzymatic reactions were assembled in 384 well plates in a total volume of 25 μL in a reaction buffer composing: 100 mM HEPES, pH7.5, 25 mM KCl, 0.1% bovine serum albumin, 0.01% Triton X-100, 1% DMSO (from compounds) 2 μM of the fluorescently labeled peptide substrate and enzyme. The enzyme was added at a final concentration of 1 nM. The peptide substrate RHKK(Ac)—NH2 was used. The compounds were tested at 12 concentrations spaced by 3× dilution intervals. Negative control samples (0%-inhibition in the absence of inhibitor) and positive control samples (100%-inhibition) were assembled in replicates of four in each assay plate. The reactions were incubated at 25° C. and quenched by the addition of 45 μL of termination buffer (100 mM HEPES, pH 7.5, 0.01% Triton X-100, 0.05% SDS).
The terminated assay plates were analyzed on LabChip® 3000 microfluidic electrophoresis instrument (Perkin Elmer/Caliper Life Sciences). The fluorescence intensity of the electrophoretically separated de-acetylated product and substrate peptide was measured. Activity in each sample was determined as the product to sum ratio (PSR): P/(S+P), where P is the peak height of the product peptide and S is the peak height of the substrate peptide. Percent inhibition (Pinh) is determined using the following equation: Pinh=(PSR0%−PSRinh)/(PSR0%−PSR100%)*100, where PSRinh is the product sum ratio in the presence of inhibitor, PSR0% is the average product sum ration in the absence of inhibitor and PSR100% is the average product sum ratio in 100%-inhibition control samples. The IC50 values of inhibitors were determined by fitting the %-inhibition curves with 4 parameter dose-response model using XLfit 4 software.

SMILES	IC50 [nM]
COc1ccc(CN2C(=O)[C@@H](C)Oc3ccc(C(=O)NO)cc32)cc1 (single isomer, unassigned) [Compound I-162]	25 to 100
CN1CC(C(=O)NC2CCOCC2)Oc2ccc(C(=O)NO)cc21 (centres unmarked) [Compound I-1, N^6-hydroxy-4-methyl-N^2-(tetrahydro-2H-pyran-4-yl)-3,4-dihydro-2H-benzo[b][1,4]oxazine-2,6-dicarboxamide hydrochloride]	> 1000
O=C(NO)c1ccc2c(c1)N(Cc1ccccc1)CC(C(=O)NC1CCOCC1)O2 (centres unmarked) [Compound I-2, 4-benzyl-N^6-hydroxy-N^2-(tetrahydro-2H-pyran-4-yl)-3,4-dihydro-2H-benzo[b][1,4]oxazine-2,6-dicarboxamide]	25 to 100
CN1CC(C(=O)N2CC3(CC3)c3ccccc32)Oc2ccc(C(=O)NO)cc21 (centres unmarked) [Compound I-3, N-hydroxy-4-methyl-2-(spiro[cyclopropane-l,3′-indoline]-1′-carbonyl)-3,4-dihydro-2H-benzo[b][1,4]oxazine-6-carboxamide hydrochloride]	100 to 1000
O=C(NO)c1ccc2c(c1)N(Cc1ccccc1)CC(C(=O)N1CC3(CC3)c3ccccc31)O2 (centres unmarked) [Compound I-4, 4-benzyl-N-hydroxy-2-(spiro[cyclopropane-l,3′-indoline]-1′ carbonyl)-3,4-dihydro-2H-benzo[b][1,4]oxazine-6-carboxamide hydrochloride]	25 to 100
CN1CC(C(=O)NCc2ccccc2)Oc2ccc(C(=O)NO)cc21 (centres unmarked) [Compound I-5, N^2-benzyl-N^6-hydroxy-4-methyl-3,4-dihydro-2H-benzo[b][1,4]oxazine-2,6-dicarboxamide hydrochloride]	25 to 100
O=C(NO)c1ccc2c(c1)N(Cc1ccccc1)CC(C(=O)NCc1ccccc1)O2 (centres unmarked) [Compound I-6, N^2,4-dibenzyl-N^6-hydroxy-3,4-dihydro-2H-benzo[b][1,4]oxazine-2,6-dicarboxamide]	25 to 100
